The values below come from patent US10072021B2, “Compound for inhibiting binding between DX2 protein and P14/ARF protein, and pharmaceutical composition for treating or preventing cancer disease containing same as effective ingredient” (PUSAN NATIONAL UNIVERSITY INDUSTRY-UNIVERSITY COOPERATION …, priority 2014, dated 2018).

The structures appear in SMILES notation. “Also recorded” adds a separate entry of the source.

One data set deals with lung tumors of DK mice. The experiment in a line: In vivo anticancer effect in DK mice (lung tumors). As to the method: All experimental procedures using laboratory animals were approved by the animal care committee of Pusan National University. DX2 (C57/BL6) and K-RasLA2 (C57/BL6) mice were obtained from Dr. Kim, Sung-Hoon and Professor. Choi, Kang-Ryeol (Yonsei University), respectively, and double Tg mice were obtained by cross-breeding of DX2 and K-RasLA2 mice. Before experiment, all mice were maintained under temperature- and light-controlled conditions (20-23° C., 12 h/12 h light/dark cycle), and provided autoclaved food and water.
Every weeks, tumor volume and body weight were measured.
After dissection of mice, tissues were fixed using 10% formalin (in PBS) for 24 hours, and embedded in paraffin blocks according to a basic tissue processing procedure. For histological analysis, embedded tissues were cut for […] by Leica microtome (Wetzlar, Germany) and transferred onto adhesive-coated slides (Marienfeld laboratory glassware, Germany). After deparaffin and rehydration, sections were then stained with H&E for routine examination.
For IHC staining, rehydrated tissue sections were incubated with antibodies to Ki-67 (Abcam, ab15580), pan-keratin (Sigma, C2931), pro-surfactant C (Millipore, AB3786), NSE (DAKO, IS612), and HER2/Neu (DAKO, A0458) for a reaction. Antigen retrieval was performed using 10 mM sodium citrate (pH 6.0) twice at a temperature of 95° C. for 10 minutes each, and endogenous peroxidase activity was blocked with 3% […] for 10 min. Then, the slides were dehydrated following a standard procedure and sealed with cover glass using mounting solution. TUNEL reaction was done as described in the manual for In Situ Cell Death Detection Kit, POD (Hoffmann-La Roche Ltd, Basel, Swizerland).
To evaluate tumor incidence, lung tissues of each mouse was fixed and embedded in paraffin. 5 sections from each mouse were examined by 3 independent investigator, who counted tumor. In addition, tumor area was calculated by tumor occupied area in total lung area using photoshop software.

Another data set has as its target T1, p53-p14/ARF interaction (Homo sapiens, UniProt P04637+Q8N726).
T1 construct: a p14/ARF fragment (full-length) was ligated into EcoRI and Hind II sites of pGEX-TEV vector; made in house; host or cells: E. coli BL21(DE3) for GST-p14/ARF
The experiment in a line: GST pull-down assay, selectivity: p53-p14/ARF interaction. The settings on record: FIG. 3D, 3E. The format is binding. The source says: Through GST pull-down assays, more specific binding inhibitors were selected among the previously screened candidate drugs as DX2-p14/ARF binding inhibitors. That is, a p14/ARF fragment (full-length) was ligated into EcoRI and Hind II sites of pGEX-TEV vector, which is a modified vector by adding a TEV protease cleavage site to pGEX-4T1. The recombinant proteins were then expressed in E. coli strain BL21(DE3) as GST-fusion proteins. The proteins were purified by glutathione affinity chromatography.
To address direct binding between the two proteins, agarose-bead conjugated GST (negative control) or GST-target protein was incubated with cell lysate or recombinant protein in radioimmunoprecipitation assay (RIPA) buffer (NaCl, 25 mM Tris-Cl, 1% NP-40, 1% sodium deoxycholate, 0.1% SDS, protease inhibitor mixture) for 1 hour at a temperature of 4° C. for a reaction.

For data set [1], the target named is T2, DX2-p14/ARF binding (His-DX2, GST-p14/ARF) (Homo sapiens, UniProt Q13155).
T2 construct: made in house; host or cells: E. coli BL21(DE3) (stated for the GST fusion)
T2 sequence (Q13155 1-251 isoform Q13155-2): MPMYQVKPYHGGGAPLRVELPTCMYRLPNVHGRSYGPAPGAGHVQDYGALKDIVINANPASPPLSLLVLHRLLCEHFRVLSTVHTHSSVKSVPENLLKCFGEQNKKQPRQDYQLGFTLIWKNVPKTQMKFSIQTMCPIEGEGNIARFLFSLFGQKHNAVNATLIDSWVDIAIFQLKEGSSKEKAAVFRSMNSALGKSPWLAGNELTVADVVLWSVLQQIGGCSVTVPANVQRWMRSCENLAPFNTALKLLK
The experiment in a line: ELISA-based screening for inhibitors of DX2-p14/ARF binding. The following applies: ELISA values at 450 nm. As to the method: In detail, referring to drawings, the compound according to an embodiment of the present invention which is a specific binding inhibitor of DX2 and p14/ARF was screened by using an ELISA-based screening method of FIG. 1. Based on the screening reaction system, increases in ELISA values with increasing concentrations of p14/ARF were measured. […] Thus, by using the ELISA-based screening method, compounds that are specific binding inhibitors of DX2 and p14/ARF were primarily screened.
That is, 0.5% His-DX2 recombinant proteins were immobilized on a 96-well plate with paraformaldehyde (PFA). After performing drying and cleaning processes, GST-p14/ARF proteins were allowed to react with a random compound (final concentration: 0.1 mM). After 1 hour, the plate was washed using TBS-T, and then, incubated with anti-GST antibodies (1:10,000, 30 minutes) and anti-mouse-IgG-HRP (1:50,000, 1 hour). After performing a washing process twice, the plate was incubated with 3,3′,5,5′-tetramethylbenzidine (TMB) solution (Calbiochem) and stop solution (1N H2SO4) for a reaction. Afterwards, by using an ELISA reader, values were measured at 450 nm, thereby selecting candidate drugs as DX2-p14/ARF binding inhibitors. […]
In general terms: An ELISA detects its analyte on a solid surface through an enzyme-linked reagent.

The next data set concerns the target T3, DX2-p14/ARF interaction (Homo sapiens, UniProt Q13155).
T3 construct: expressed in transfected cells; host or cells: 293 (HEK293) cells
T3 sequence (Q13155 1-251 isoform Q13155-2): T2 sequence (Q13155 1-251 isoform Q13155-2)
The data set is described as follows: Immunoprecipitation analysis of DX2-p14/ARF interaction in cotransfected 293 cells. The format is cell-based. The settings on record: MG132, SLCB050 10 μM, 6 hours, IP with Myc antibodies. How it is done:
Here, contransfected 293 cells were allowed to react with MG132 before immunoprecipitation analysis to prevent reduction of two proteins, and after performing SLCB050 treatment (10 μM, 6 hours), immunoprecipitation assay was performed on the cells by using Myc antibodies (DX2).
Here, 293 cells were transfected with indicating vectors for 24 hours and was allowed to react with MG132 and SLCB050 for 6 hours.
Immunoprecipitation (IP) assay was performed with cell lysate or recombinant protein with RIPA buffer. The whole lysates were incubated with suitable antibodies for 2 hours at a temperature of 4° C. for a reaction, and then, the mixtures were added with A/G-agarose beads-conjugated secondary antibody (Invitrogen, Carlsbad, Calif., USA) for 2 hours. After incubation for a reaction, the mixtures were washed using RIPA buffer twice, and precipitated proteins were determined by western blot analysis.

T1 sequence (Q8N726 whole entry, the tested form may be a part): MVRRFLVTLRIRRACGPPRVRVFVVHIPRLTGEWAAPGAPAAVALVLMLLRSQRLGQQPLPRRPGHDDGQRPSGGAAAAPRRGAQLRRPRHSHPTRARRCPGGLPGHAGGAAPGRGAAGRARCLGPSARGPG
T1 sequence (P04637 whole entry, the tested form may be a part): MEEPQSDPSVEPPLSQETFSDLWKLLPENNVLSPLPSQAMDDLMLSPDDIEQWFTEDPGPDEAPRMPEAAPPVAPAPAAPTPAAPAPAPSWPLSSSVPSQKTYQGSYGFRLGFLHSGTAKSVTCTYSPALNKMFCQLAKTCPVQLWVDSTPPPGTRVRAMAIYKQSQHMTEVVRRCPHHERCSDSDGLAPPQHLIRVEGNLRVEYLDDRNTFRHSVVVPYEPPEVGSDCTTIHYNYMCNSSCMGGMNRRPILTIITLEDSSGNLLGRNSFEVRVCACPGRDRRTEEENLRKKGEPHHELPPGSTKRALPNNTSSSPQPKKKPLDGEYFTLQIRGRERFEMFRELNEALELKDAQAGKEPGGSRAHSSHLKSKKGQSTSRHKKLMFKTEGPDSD

Take `CC1(C)Oc2cc3oc(=O)ccc3cc2C[C@@H]1OC(=O)/C=C/c1ccco1` [SLCB050, (7S)-(+)-3-(2-Furanyl)-acrylic acid, 8,8-dimethyl-2-oxo-6,7-dihydro-2H,8H-pyrano[3,2-g]chromen-7-yl-ester]: the “weight loss, combination” value in the data set with lung tumors of DK mice (DK mice, SLCB050 10 mg/kg and Adriamycin 2.5 mg/kg) is on record as “without significant weight loss”. Also, the “tumor progression, combination” value in the data set with lung tumors of DK mice (DK mice, SLCB050 10 mg/kg and Adriamycin 2.5 mg/kg, i.p., FIG. 10B, 10C) is “significantly suppressed tumor progression; also recorded: induced tumor regression”. Moreover, the “DX2 level in vivo (western blot)” value with lung tumors of DK mice (DK mice, SLCB050 treatment, FIG. 12A) is listed as “reduction of DX2”. Also, in the data set on lung tumors of DK mice (DK mice, combinational treatment with Adriamycin and SLCB050, FIG. 10C), the “tumor volumes, combination” value is reported as “reduced tumor volumes”. Besides, the “SCLC regions in lung tissue (H-E staining), combination” value in the data set with lung tumors of DK mice (DK mice, combinational treatment with Adriamycin and SLCB050, FIG. 11) is on record as “more obviously erased”. Further, in the data set on lung tumors of DK mice (lung tissues of DK mice treated with Adriamycin and SLCB050 in combination, FIG. 12B, 12C), the “apoptotic tumor cells (TUNEL staining)” value was “obviously increased apoptosis tumer cells”. Further, the “effect on interaction of p53-p14/ARF” value at p53-p14/ARF interaction is “did not affect the interaction of p53-p14/ARF”. For the same compound, the “ELISA reaction of DX2-p14/ARF binding” value in data set [1] is “considerably reduced”. For the same compound, the “interaction of p14/ARF with DX2 in cells” value on DX2-p14/ARF interaction is “inhibited the interaction of p14/ARF with DX2 in cells”.
